Data taken from paper PMC12040169 (PLOS Biology, 2025).

assay: in vitro; conditions: human, hela cells, % viability

Compared with Cc1ccc2c(c1)cc(C)c1nn(CC(=O)NC(C)C)c(=O)n12 [CBK283874], Cc1ccc2c(c1)cc(C)c1nn(CC(=O)NC(C)(C)C)c(=O)n12 [CBK283875] is higher in viability at 28.5 h, 10 µM: 83.5% for the first, 87.5% for the second.

First: Cc1cc(C)c2c(c1)cc(C)c1nn(CC(=O)NC3CC3)c(=O)n12 [CBK283877]
Second: Cc1cc2ccccc2n2c(=O)n(CC(=O)NC3CCCC3)nc12 [CBK283884]
The viability at 28.5 h, 10 µM of the first is higher: 83.5% for the first, 79.7% for the second.

Compared with Cc1cc2ccccc2n2c(=O)n(CC(=O)N3CCCC3)nc12 [CBK283880], Cc1nn(CC(=O)N2CCCC2)c(=O)c2cc3ccsc3n12 [CBK284057] is lower in viability at 28.5 h, 10 µM: 101% for the first, 88.7% for the second.

Compared with CC(NC(=O)c1ncoc1-c1ccccc1)c1ccccn1 (stereo not drawn) [CBK283889], COc1ccc(-c2ocnc2C(=O)NCCc2ccccc2F)cc1 [CBK283941] is lower in viability at 28.5 h, 10 µM: 92.6% for the first, 90% for the second.

Going from CCn1c(=O)n(CC(=O)N2CCCC3CCCCC32)c2cccnc21 (stereo not drawn) [CBK283893] to CCn1c(=O)n(CC(=O)N2CCCC2)c2cccnc21 [CBK283904], the viability at 28.5 h, 10 µM rises from 87.3% to 107%.

First: CCn1c(=O)n(CC(=O)NCc2ccc(F)cc2)c2cccnc21 [CBK283901]
Second: Cn1c(=O)n(CC(=O)NCc2ccc(F)cc2)c2cccnc21 [CBK283908]
The viability at 28.5 h, 10 µM of the first is higher: 87.8% for the first, 86.6% for the second.

Compared with CN(C)C(=O)Cn1c(=O)n(Cc2cccs2)c2ncccc21 [CBK283902], CCN(CC)C(=O)Cn1c(=O)n(Cc2ccco2)c2ncccc21 [CBK284016] is higher in viability at 28.5 h, 10 µM: 81.7% for the first, 109% for the second.

Compared with Cn1c(=O)n(CC(=O)NCCc2ccccc2)c2cccnc21 [CBK283910], Cn1c(=O)n(CC(=O)NCc2cccc(F)c2)c2cccnc21 [CBK283911] is higher in viability at 28.5 h, 10 µM: 82.8% for the first, 105% for the second.

Compared with Cc1ccnn1CCC(=O)N1CCn2cc(C(F)(F)F)nc2C1 [CBK283912], Cc1nn(CC(=O)N2CCCCC2)c(=O)c2cc3ccsc3n12 [CBK284078] is lower in viability at 28.5 h, 10 µM: 110% for the first, 91% for the second.

Going from Cn1c(=O)n(CC(=O)Nc2ccc(F)cc2)c2cccnc21 [CBK283919] to COCCn1c(=O)n(Cc2ccccc2F)c2cccnc21 [CBK283965], the viability at 28.5 h, 10 µM falls from 101% to 88.6%.

First: C=CCNC(=O)C1CCN(c2nc3ccccc3n2CC)CC1 [CBK283920]
Second: C=CCNC(=O)C1CCN(c2nc3ccccc3n2C)CC1 [CBK283955]
The viability at 28.5 h, 10 µM of the first is higher: 113% for the first, 92% for the second.

Compared with CCn1c(N2CCC(C(=O)NC3CC3)CC2)nc2ccccc21 [CBK283922], CCn1c(N2CCC(C(=O)NCC3CC3)CC2)nc2ccccc21 [CBK283983] is higher in viability at 28.5 h, 10 µM: 92.7% for the first, 104% for the second.

Going from O=C(NC1CCCc2c1cnn2-c1ccc(F)cc1)C1CC1 (stereo not drawn) [CBK283928] to O=C(CN1CCCC1)NC1CCCc2c1cnn2-c1ccc(F)cc1 (stereo not drawn) [CBK283930], the viability at 28.5 h, 10 µM falls from 111% to 91.5%.

Going from CC(C)n1c(=O)n(CCN2CCCCC2)c2cccnc21 [CBK283932] to CCc1nn(CCN2CCCC2)c(=O)c2cc3sccc3n12 [CBK284075], the viability at 28.5 h, 10 µM falls from 95.4% to 83.5%.

Compared with c1ccc(CNc2c(-c3ccco3)nc3cnccn23)cc1 [CBK283933], O=C(NCc1cccnc1)c1ncoc1-c1cccs1 [CBK283974] is lower in viability at 28.5 h, 10 µM: 90.6% for the first, 87.5% for the second.

First: O=C(Cn1ccnc1)N1CCCCC1c1nc2ccccc2[nH]1 (stereo not drawn) [CBK283936]
Second: O=C(C1CC1)N1CCC2(CC1)Nc1ccccc1-n1cccc12 [CBK284011]
The viability at 28.5 h, 10 µM of the first is higher: 107% for the first, 91.5% for the second.

First: O=C(CN1C(=O)N2CCN=C2c2ccccc21)N1CCCC1 [CBK283945]
Second: CC1CCN(C(=O)CN2C(=O)N3CCN=C3c3ccccc32)CC1 [CBK283946]
The viability at 28.5 h, 10 µM of the first is lower: 91.9% for the first, 93.6% for the second.

Compared with Cc1nc2c(c(=O)[nH]1)CN(Cc1ccc(Cl)c(Cl)c1)CC2 [CBK283949], Cc1nc2c(c(=O)[nH]1)CN(Cc1cc(F)ccc1F)CC2 [CBK283953] is lower in viability at 28.5 h, 10 µM: 88.7% for the first, 86.9% for the second.

First: Cc1nc2c(c(=O)[nH]1)CN(Cc1sccc1C)CC2 [CBK283950]
Second: Cc1nc2c(c(=O)[nH]1)CN(Cc1cn(C(C)C)c3ccccc13)CC2 [CBK284014]
The viability at 28.5 h, 10 µM of the first is lower: 91.1% for the first, 93.5% for the second.

Going from CC1CC(C)CN(C(=O)CN2C(=O)N3CCN=C3c3ccccc32)C1 (stereo not drawn) [CBK283960] to CN(C)C(=O)CN1C(=O)N2CCN=C2c2ccccc21 [CBK283961], the viability at 28.5 h, 10 µM rises from 90% to 94.7%.

Going from O=C1NC2(CCN(C(=O)Cc3ccsc3)CC2)Nc2ccccc21 [CBK283963] to O=C1NC2(CCN(C(=O)c3cccs3)CC2)Oc2ccccc21 [CBK283998], the viability at 28.5 h, 10 µM falls from 94.7% to 87.3%.

Going from Clc1ccccc1CN1CCC(n2cnc3cccnc32)CC1 [CBK283967] to c1csc(CN2CCC(n3cnc4cccnc43)CC2)c1 [CBK283968], the viability at 28.5 h, 10 µM falls from 105% to 101%.

First: Cc1nc2c(c(=O)[nH]1)CCN(Cc1ccc(-c3ccccc3)cc1)C2 [CBK283970]
Second: Cc1nc2c(c(=O)[nH]1)CCN(Cc1[nH]c3ccccc3c1C)C2 [CBK283995]
The viability at 28.5 h, 10 µM of the first is higher: 94.4% for the first, 93% for the second.

Going from Cc1csc(NC(=O)c2ncoc2-c2cccs2)n1 [CBK283972] to Cc1cnc(NC(=O)c2ncoc2-c2cccs2)s1 [CBK283977], the viability at 28.5 h, 10 µM rises from 88.2% to 102%.

Compared with O=C(Nc1nccs1)c1ncoc1-c1cccs1 [CBK283975], O=C(NCc1ccc(F)cc1)c1ncoc1-c1cccs1 [CBK283976] is lower in viability at 28.5 h, 10 µM: 102% for the first, 91.7% for the second.

First: Cc1c(C(=O)NC2(c3ccc(F)cc3)CCCC2)cnn1C [CBK283978]
Second: Cn1ccnc1C1(O)CC2CCC(C1)N2C(=O)Nc1ccc(F)cc1 (stereo not drawn) [CBK284051]
The viability at 28.5 h, 10 µM of the first is higher: 90.9% for the first, 85.7% for the second.

Compared with CCn1c(N2CCC(C(=O)NC(C)C)CC2)nc2ccccc21 [CBK283982], CC(C)NC(=O)C1CCN(c2nc3ccccc3n2C)CC1 [CBK283986] is higher in viability at 28.5 h, 10 µM: 83.8% for the first, 87.5% for the second.

Going from Cn1c(CNC(=O)c2ncoc2-c2cccs2)nc2ccccc21 [CBK283985] to CCc1nn(Cc2ccccn2)c(=O)c2cc3sccc3n12 [CBK284074], the viability at 28.5 h, 10 µM falls from 78.6% to 46.8%.

Compared with Cc1nc2c(c(=O)[nH]1)CCN(Cc1cn(C(C)C)c3ccccc13)C2 [CBK283991], C=CCn1cc(CN2CCc3c(nc(C)[nH]c3=O)C2)c2ccccc21 [CBK283992] is lower in viability at 28.5 h, 10 µM: 105% for the first, 97.5% for the second.

Going from CCc1cccc2c(CN3CCc4c(nc(C)[nH]c4=O)C3)c[nH]c12 [CBK283993] to Cc1nc2c(c(=O)[nH]1)CCN(Cc1[nH]c3ccc(F)cc3c1C)C2 [CBK283996], the viability at 28.5 h, 10 µM falls from 94.6% to 89.4%.

Going from O=C1NC2(CCN(C(=O)c3ccccc3F)CC2)Oc2ccccc21 [CBK283997] to O=C(CN1C2CCC1CC(O)(c1ccco1)C2)Nc1ccc(F)cc1 (stereo not drawn) [CBK284062], the viability at 28.5 h, 10 µM rises from 81.9% to 87.6%.

Compared with Cc1nn(CC(=O)OC(C)C)c(=O)c2cc3sccc3n12 [CBK284022], CCc1nn(CC(=O)OC(C)C)c(=O)c2cc3sccc3n12 [CBK284076] is lower in viability at 28.5 h, 10 µM: 93.7% for the first, 75.3% for the second.

Compared with Cc1nn(CC(=O)NC2CCCC2)c(=O)c2cc3sccc3n12 [CBK284023], Cc1nn(CC(=O)OC2CCCCC2)c(=O)c2cc3sccc3n12 [CBK284045] is lower in viability at 28.5 h, 10 µM: 104% for the first, 80.8% for the second.

Compared with Cc1nn(CC(=O)NCC2CC2)c(=O)c2cc3sccc3n12 [CBK284025], CCc1nn(CC(=O)NCC2CC2)c(=O)c2cc3sccc3n12 [CBK284055] is lower in viability at 28.5 h, 10 µM: 94.5% for the first, 90.5% for the second.

Going from Cc1nn(CC(=O)NC2CC2)c(=O)c2cc3ccsc3n12 [CBK284026] to Cc1nn(CC(=O)NC(C)(C)C)c(=O)c2cc3ccsc3n12 [CBK284082], the viability at 28.5 h, 10 µM falls from 92.3% to 83.2%.

Going from CCc1nn(CC(=O)NC2CC2)c(=O)c2cc3sccc3n12 [CBK284029] to CCc1nn(CC(=O)N(C)C)c(=O)c2cc3sccc3n12 [CBK284031], the viability at 28.5 h, 10 µM rises from 88.7% to 91.3%.

First: O=C(c1ccccn1)N1C2CCC1CC(O)(c1ccco1)C2 (stereo not drawn) [CBK284034]
Second: COc1cccc(CC(=O)N2C3CCC2CC(O)(c2ccco2)C3)c1 (stereo not drawn) [CBK284053]
The viability at 28.5 h, 10 µM of the first is higher: 87% for the first, 80.5% for the second.

First: O=C(C1CCCO1)N1C2CCC1CC(O)(c1ccco1)C2 (stereo not drawn) [CBK284035]
Second: Cn1ccnc1C1(O)CC2CCC(C1)N2C(=O)NC1CCCCC1 (stereo not drawn) [CBK284049]
The viability at 28.5 h, 10 µM of the first is lower: 83% for the first, 88.5% for the second.

Going from Cc1cc2nccc(C3CCCN(C(=O)OC(C)(C)C)C3)n2n1 (stereo not drawn) [CBK284037] to CC(C)C(=O)N1CCCC(n2nc(-c3cccs3)ccc2=O)C1 (stereo not drawn) [CBK284038], the viability at 28.5 h, 10 µM rises from 90.8% to 92.3%.

Going from Cc1nn(CC(=O)N2CCCCC2)c(=O)c2cc3sccc3n12 [CBK284040] to Cc1nn(CC(=O)N2CCCCCC2)c(=O)c2cc3sccc3n12 [CBK284084], the viability at 28.5 h, 10 µM falls from 93.6% to 80.4%.

First: Cc1nn(CC(=O)N2CCCC(C)C2)c(=O)c2cc3ccsc3n12 (stereo not drawn) [CBK284041]
Second: Cc1nn(CC(=O)N2CCCC(C)C2)c(=O)c2cc3sccc3n12 (stereo not drawn) [CBK284046]
The viability at 28.5 h, 10 µM of the first is lower: 81.7% for the first, 87.7% for the second.

Compared with Cn1ccnc1C1(O)CC2CCC(C1)N2C(=O)NCc1ccccc1 (stereo not drawn) [CBK284050], Cn1ccnc1C1(O)CC2CCC(C1)N2C(=O)c1cccs1 (stereo not drawn) [CBK284088] is higher in viability at 28.5 h, 10 µM: 81.3% for the first, 94.2% for the second.

Going from Cc1cc2c(cc3c(=O)n(CC(=O)N4CCCCC4)nc(C)n32)s1 [CBK284063] to Cc1cc2c(cc3c(=O)n(CC(=O)NC4CC4)nc(C)n32)s1 [CBK284067], the viability at 28.5 h, 10 µM falls from 95.3% to 74.3%.

First: CCN(CC)C(=O)Cn1nc(C)n2c(cc3sc(C)cc32)c1=O [CBK284064]
Second: Cc1cc2c(cc3c(=O)n(CC(=O)OC(C)C)nc(C)n32)s1 [CBK284071]
The viability at 28.5 h, 10 µM of the first is lower: 96.1% for the first, 98.6% for the second.

First: CCOC(=O)C(C)n1nc(C)n2c(cc3sc(C)cc32)c1=O (stereo not drawn) [CBK284066]
Second: CCOC(=O)Cn1nc(CC)n2c(cc3sccc32)c1=O [CBK284073]
The viability at 28.5 h, 10 µM of the first is lower: 76.8% for the first, 80.3% for the second.

Compared with Cc1nn(CC(=O)N2CCC(C)CC2)c(=O)c2cc3sccc3n12 [CBK284083], Cn1ccnc1C1(O)CC2CCC(C1)N2C(=O)c1ccc(F)cc1 (stereo not drawn) [CBK284086] is higher in viability at 28.5 h, 10 µM: 80% for the first, 98.4% for the second.

With Cn1ccnc1C1(O)CC2CCC(C1)N2C(=O)c1ccc(Cl)cc1 (stereo not drawn) [CBK284087] the viability at 28.5 h, 10 µM was 94.2%.
